Test results reported in publication PMC12586667 (Scientific Reports, 2025).

Key:
CYP2D6 = CYP2D6 (Homo sapiens, UniProt P10635); assay: CYP2D6 activity on chip by quantifying 1-OH bufuralol; assay type: in vitro ADME
CYP2C9 = CYP2C9 (Homo sapiens, UniProt P11712); assay: CYP2C9 activity on chip by quantifying 4-OH diclofenac; assay type: in vitro ADME
[1] = Stability of metabolite in medium containing 10% FBS; assay type: in vitro ADME; details: could not be measured
[2] = model drugs with minimal first-pass effects; cited from earlier work
[3] = tested on: WT and genome-edited intestine-liver-on-a-chip (Caco-2 and HepG2 cells); assay: Drug permeability assay; assay type: in vitro ADME, human; details: for drug concentration in the top channel / drug concentration in the bottom channel: WT and genome-edited chips
CYP1A2 = target: T1, CYP1A2 (Homo sapiens, UniProt P05177); assay: CYP1A2 activity on chip by quantifying ISOPRO; assay type: in vitro ADME
T1 sequence (P05177 1-516): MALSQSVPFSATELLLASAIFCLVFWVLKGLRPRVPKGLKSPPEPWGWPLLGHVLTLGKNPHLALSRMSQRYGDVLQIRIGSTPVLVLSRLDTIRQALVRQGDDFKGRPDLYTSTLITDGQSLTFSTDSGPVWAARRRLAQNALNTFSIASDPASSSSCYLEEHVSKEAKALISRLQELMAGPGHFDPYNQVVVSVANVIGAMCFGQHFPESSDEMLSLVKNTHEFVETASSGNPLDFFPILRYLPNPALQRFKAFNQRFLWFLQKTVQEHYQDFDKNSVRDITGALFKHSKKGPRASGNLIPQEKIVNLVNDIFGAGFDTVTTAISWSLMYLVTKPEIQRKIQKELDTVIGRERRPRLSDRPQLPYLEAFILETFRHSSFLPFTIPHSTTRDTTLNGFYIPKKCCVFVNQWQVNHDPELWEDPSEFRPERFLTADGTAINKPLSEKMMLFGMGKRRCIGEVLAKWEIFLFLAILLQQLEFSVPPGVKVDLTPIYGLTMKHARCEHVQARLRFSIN

[4] = Measurement of drug absorption; assay type: physicochemical; details: within 2 h
[5] = coadministration; cited from earlier work
CYP3A4 = CYP3A4 (Homo sapiens, UniProt P08684); assay: CYP3A4 activity on chip by quantifying α-OH triazolam; assay type: in vitro ADME; details: flow conditions
[6] = tested on: intestine-liver-on-a-chip (Caco-2 and HepG2 cells); assay: Lucifer yellow permeability assay; assay type: in vitro ADME, human; details: WT and genome-edited chips vs WT or genome-edited Caco-2 mono-culture
[7] = both static and flow conditions

Sequence of CYP2D6 (P10635 whole entry): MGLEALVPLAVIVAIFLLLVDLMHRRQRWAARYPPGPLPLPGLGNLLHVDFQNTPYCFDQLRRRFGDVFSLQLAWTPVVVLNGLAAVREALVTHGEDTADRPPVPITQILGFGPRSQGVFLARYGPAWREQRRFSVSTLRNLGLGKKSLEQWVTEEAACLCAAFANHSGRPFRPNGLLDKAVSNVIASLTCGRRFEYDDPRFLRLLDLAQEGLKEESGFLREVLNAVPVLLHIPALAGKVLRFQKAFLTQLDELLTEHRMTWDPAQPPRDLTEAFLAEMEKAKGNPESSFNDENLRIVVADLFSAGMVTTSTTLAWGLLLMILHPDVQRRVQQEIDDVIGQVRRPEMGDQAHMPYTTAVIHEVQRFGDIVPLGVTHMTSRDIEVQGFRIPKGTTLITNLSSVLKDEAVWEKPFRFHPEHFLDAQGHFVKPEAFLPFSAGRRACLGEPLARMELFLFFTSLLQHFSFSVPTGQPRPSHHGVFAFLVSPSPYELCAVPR
Sequence of CYP2C9 (P11712 whole entry): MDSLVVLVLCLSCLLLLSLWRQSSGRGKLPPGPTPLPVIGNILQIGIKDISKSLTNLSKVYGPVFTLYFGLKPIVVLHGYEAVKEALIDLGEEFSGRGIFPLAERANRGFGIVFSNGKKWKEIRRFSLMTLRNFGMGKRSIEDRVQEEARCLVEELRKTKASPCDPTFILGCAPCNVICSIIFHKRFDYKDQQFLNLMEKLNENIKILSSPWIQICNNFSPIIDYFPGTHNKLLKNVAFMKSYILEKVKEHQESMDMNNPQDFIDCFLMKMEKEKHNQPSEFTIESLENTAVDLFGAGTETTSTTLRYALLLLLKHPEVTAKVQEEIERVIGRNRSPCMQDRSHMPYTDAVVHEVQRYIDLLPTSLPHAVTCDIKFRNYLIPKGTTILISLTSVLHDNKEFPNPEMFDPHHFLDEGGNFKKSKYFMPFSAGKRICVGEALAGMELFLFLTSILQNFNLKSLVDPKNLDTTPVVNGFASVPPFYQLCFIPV
Sequence of CYP3A4 (P08684 whole entry): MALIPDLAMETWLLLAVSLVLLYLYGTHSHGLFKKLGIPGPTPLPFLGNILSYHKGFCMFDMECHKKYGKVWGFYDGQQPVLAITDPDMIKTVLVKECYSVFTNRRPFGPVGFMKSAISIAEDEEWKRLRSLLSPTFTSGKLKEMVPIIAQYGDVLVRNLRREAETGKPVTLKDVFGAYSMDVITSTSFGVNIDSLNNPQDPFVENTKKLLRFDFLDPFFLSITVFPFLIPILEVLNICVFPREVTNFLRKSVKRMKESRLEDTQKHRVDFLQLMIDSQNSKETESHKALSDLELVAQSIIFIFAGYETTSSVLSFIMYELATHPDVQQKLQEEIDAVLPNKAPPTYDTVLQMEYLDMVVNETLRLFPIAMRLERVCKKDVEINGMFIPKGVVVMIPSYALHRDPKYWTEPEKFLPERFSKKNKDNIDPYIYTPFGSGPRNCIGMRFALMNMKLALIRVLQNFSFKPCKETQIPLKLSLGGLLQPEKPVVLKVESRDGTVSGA

## 1’-hydroxy bufuralol [1-OH bufuralol]
CYP2D6; flow, top and bottom channels, 24 and 48 h
  metabolite concentration, genome-edited chip vs WT chip: higher in the genome-edited chip compared to the WT chip
CYP2D6; genome-edited chip
  metabolite concentration, flow vs static conditions: higher than that observed in the static conditions

## O=C(O)Cc1ccccc1Nc1c(Cl)cc(O)cc1Cl [4-OH diclofenac, 4’-hydroxy diclofenac]
CYP2C9; flow, top and bottom channel, 24 and 48 h
  metabolite concentration, genome-edited chip vs WT chip: higher in the genome-edited chip Flow compared to the WT chip Flow
CYP2C9; top channel of genome-edited chip
  metabolite concentration, static vs flow conditions: higher than that under flow conditions

## CC(C)NCC(O)COc1ccc(O)c2ccccc12 (centres unmarked) [4-OH propranolol, 4-hydroxy propranolol]
[1]
  stability: extremely unstable

## CC(=O)Nc1ccc(O)cc1 [APAP, acetaminophen]
[2]
  oral bioavailability (F): > 0.7
[3]; flow conditions, 24 and 48 h
  drug concentration in the top channel, genome-edited chip vs WT chip: slightly higher than those in the WT chip
[3]; flow conditions, 24 and 48 h, 10 μM
  drug concentration in the top channel: decreased compared to the initial concentration of 10 μM
[3]; flow conditions
  drug concentration in the bottom channel: increased substantially
[3]; static conditions, 10 μM
  drug concentration in the bottom channel: increased in a time-dependent manner
  drug concentration in the top channel: remained constant

## NCC(O)COc1cccc2ccccc12 (centres unmarked) [ISOPRO, desisopropylpropranolol]
CYP1A2; flow conditions vs static
  metabolite concentration in the bottom channel: increased under flow conditions
  metabolite concentration in the top channel: no change was observed
CYP1A2; flow, top and bottom channels, 1 μM propranolol
  metabolite concentration, genome-edited chip vs WT chip: higher in the genome-edited chip under flow conditions compared to the WT chip
CYP1A2; genome-edited chip, flow conditions
  time of peak concentration in the bottom channel: 24 h

## CCc1cccc2cc(C(O)CNC(C)(C)C)oc12 (centres unmarked) [bufuralol]
[4]
  adsorption onto the PDMS device: substantially adsorbed
[3]; after 48 h
  drug concentration, genome-edited chips vs WT chips: slightly lower in the genome-edited chips than in the WT chips
[3]; [7]
  drug concentration in the top channel: rapid decrease in concentration
[3]; flow conditions
  drug concentration in the bottom channel: increased substantially compared to static conditions

## Cn1c(=O)c2c(ncn2C)n(C)c1=O [caffeine]
[2]
  oral bioavailability (F): > 0.7

## O=C(O)Cc1ccccc1Nc1c(Cl)cccc1Cl [diclofenac]
[3]; [7]
  drug concentration in the top channel: slightly reduced compared to the initial concentration of 10 μM

## CCC(C)n1ncn(-c2ccc(N3CCN(c4ccc(OCC5COC(Cn6cncn6)(c6ccc(Cl)cc6Cl)O5)cc4)CC3)cc2)c1=O (centres unmarked) [itraconazole]
[5]
  effect on the area under the curve (AUC) of triazolam: increase the area under the curve (AUC) of triazolam

## CC(C)NCC(O)COc1cccc2ccccc12 (centres unmarked) [propranolol]
[4]
  adsorption onto the PDMS device: substantially adsorbed
[3]; [7]
  drug concentration in the top channel: rapidly decreased
[3]; flow conditions, 24 and 48 h
  drug concentration, genome-edited chips vs WT chips: significantly lower than those in the WT chips
[3]; flow conditions
  drug concentration in the bottom channel: increased substantially

## Cc1nnc2n1-c1ccc(Cl)cc1C(c1ccccc1Cl)=NC2 [triazolam]
[4]
  adsorption onto the PDMS device: substantially adsorbed
[3]; [7]
  drug concentration in the top channel: rapid decrease in concentration
[3]; flow conditions, 24 and 48 h
  drug concentration, genome-edited chips vs WT chips: lower than those in WT chips
[3]; flow conditions
  drug concentration in the bottom channel: increased substantially

## OCc1nnc2n1-c1ccc(Cl)cc1C(c1ccccc1Cl)=NC2 [α-OH triazolam, α-hydroxy triazolam]
CYP3A4
  metabolite concentration, genome-edited chip vs WT chip: higher than that observed in the WT chip

## Lucifer Yellow CH [LY]
[6]
  Papp of LY in chips compared to Caco-2 cells mono-culture: lower in both the WT and genome-edited chips
